Laboratory results from patent publication US20240390349A1, “DOSING REGIMEN OF CAPSID INHIBITOR” (priority 2023, published 2024).

Test system: HIV-1 (MT-4 cells)
Experiment: Inhibitory quotient 4 (4-fold in vitro protein-adjusted 95% effective concentration, MT-4 cells)
Type: cell-based
Settings: 4-fold in vitro protein binding-adjusted 95% effective concentration

SMILES: CC(C)(C#Cc1ccc(-c2ccc(Cl)c3c(NS(C)(=O)=O)nn(CC(F)(F)F)c23)c([C@H](Cc2cc(F)cc(F)c2)NC(=O)Cn2nc(C(F)(F)F)c3c2C(F)(F)[C@@H]2C[C@H]32)n1)S(C)(=O)=O [LEN, N—((S)-1-(3-(4-chloro-3-(methylsulfonamido)-1-(2,2,2-trifluoroethyl)-1H-indazol-7-yl)-6-(3-methyl-3-(methylsulfonyl)but-1-yn-1-yl)pyridin-2-yl)-2-(3,5-difluorophenyl)ethyl)-2-((3bS,4aR)-5,5-difluoro-3-(trifluoromethyl)-3b,4,4a,5-tetrahydro-1H-cyclopropa [3,4]cyclopenta [1,2-c]pyrazol-1-yl) acetamide]
- Plasma concentration corresponding to inhibitory quotient 4 (IQ4): 15.5 ng/mL
